Assay results published in patent US9732060B2, “Aminotriazine derivative and pharmaceutical composition comprising the same” (Shionogi & Co., Ltd., priority 2013, dated 2017).
Read-outs that look alike come from different tables or passages of the source.

Legend:
[1] = Pharmacokinetic test (BA, CLtot); type: in vivo; conditions: rat, plasma, SD rats
Method: • (1) Animals: SD rats were used • (2) Breeding conditions: SD rats were allowed to freely take solid food and sterilized tap water. • (3) Dose and grouping: orally or intravenously administered at a predetermined dose; grouping was as follows (Dose depends on the compound)
Oral administration: 1 mg/kg (n=2)
The total body clearance (CLtot) was calculated by dividing the dose by the AUC of the intravenous administration group.

human P2X3 receptor [2] = biological target: T1, human P2X3 receptor (Homo sapiens (Human), UniProt P56373); assay: Evaluation of human P2X3 receptor inhibitory activity (FLIPR Ca fluorescence, ATP-evoked); type: cell-based; conditions: C6BU-1 cells stably expressing human P2X3 receptor
T1 sequence (P56373 whole entry): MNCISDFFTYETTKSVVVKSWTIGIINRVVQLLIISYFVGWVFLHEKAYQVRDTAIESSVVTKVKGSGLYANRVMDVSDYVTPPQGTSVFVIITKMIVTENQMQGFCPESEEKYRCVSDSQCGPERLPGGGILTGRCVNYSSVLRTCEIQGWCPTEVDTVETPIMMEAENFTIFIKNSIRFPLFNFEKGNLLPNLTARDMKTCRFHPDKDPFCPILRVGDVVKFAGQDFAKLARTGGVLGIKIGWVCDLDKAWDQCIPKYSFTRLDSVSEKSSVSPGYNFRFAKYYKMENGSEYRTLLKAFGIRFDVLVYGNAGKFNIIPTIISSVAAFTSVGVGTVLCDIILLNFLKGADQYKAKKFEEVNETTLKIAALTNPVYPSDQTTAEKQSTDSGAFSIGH
Method: Stably expressing cell line (C6BU-1 cell transfected with human P2X3 receptor gene (GenBank accession number Y07683) was used. The cells were seeded in a 384-well PDL-coated microtiter plate at a concentration of 3000 cells/well and cultured in the medium (8.3% fetal bovine serum, 8.3% horse serum, and 1% antibiotic and antifungal in DMEM) for one day at 37° C. under 5% carbon dioxide atmosphere. The medium was replaced with 4 μM Fluo-3-AM solution (20 mM HEPES, 137 mM NaCl, 2.7 mM KCl, 0.9 mM MgCl2, 5.0 mM CaCl2, 5.6 mM D-glucose, 2.5 mM probenecid, 0.5% BSA, and 0.04% Pluronic P-127, pH 7.5) and incubated at 37° C. under 5% dioxide carbon atmosphere for one hour. The plate was washed with washing buffer (20 mM HEPES, 137 mM NaCl, 2.7 mM KCl, 0.9 mM MgCl2, 5.0 mM CaCl2, 5.6 mM D-glucose, 2.5 mM probenecid, pH 7.5), and each well was added with 20 μL of the washing buffer. The plate was placed in High-Throughput Screening System FLIPR 384 (Molecular Device Co.). Measurement of fluorescence intensity by […] was started, and 20 μL of DMSO solutions containing different concentrations of the test compound as prepared by dilution with dilution buffer (20 mM HEPES, 137 mM NaCl, 2.7 mM KCl, 0.9 mM MgCl2, 5.0 mM CaCl2, 5.6 mM D-glucose, 2.5 mM probenecid, 0.1% Pluronic F-127, pH 7.5) were dispensed to each well through the built-in automatic dispenser. Five minutes after, 150 nM ATP solution (25 μL) prepared by dilution with the dilution buffer was dispensed through the built-in automatic dispenser, and the measurement of fluorescence intensity was continued for 4 min. For each well, the specific maximum fluorescence intensity was calculated as the ratio of the maximum fluorescence intensity after addition of the ATP solution to the fluorescence intensity at the starting of the measurement. […] The specific maximum fluorescence intensify and IC50 were calculated using Spotfire (Science & Technology Systems. Inc.)

[3] = Solubility test (1% DMSO, artificial intestinal juice pH 6.8); type: physicochemical; conditions: artificial intestinal juice pH 6.8 with 1% DMSO, 25 °C, fassgf or other biorelevant, kinetic from dmso stock, artificial intestinal juice pH 6.8, 25 degrees Celsius, read-out: Solubulity
[4] = Protein binding test (equilibrium dialysis, unbound fraction in serum); type: in vitro ADME; conditions: 37° C.
Method: The unbound fraction of the present compound in serum was measured using serum of various species.
The reactive conditions are as follows: Evaluation method, Equilibrium dialysis; Reaction time, 24 hours; Reaction temperature, 37° C.; Concentration of the present compound, 2 μg/mL
The test solution was added to each serum and the mixture was agitated to prepare the serum samples at the concentration mentioned above. Each serum sample was added into one side of the cell and phosphate buffered saline (PBS) was added into the other side to perform equilibrium dialysis at 37° C. for 24 hours. Then, the concentration of the compounds in the samples that were obtained from both sides was measured by LC/MS/MS.
The ratio of PBS concentration to serum concentration is expressed as unbound fraction (fu),

human P2X3 receptor [5] = biological target: T1, human P2X3 receptor; assay: Evaluation of human P2X3 receptor inhibitory activity in the presence of human serum albumin (HSA); type: cell-based; conditions: in the presence of 1% HSA (final concentration)
Method: Stably expressing cell line (C6BU-1 cell transfected with human P2X3 receptor gene (GenBank accession number Y07683; was used. The cells were seeded in a 96-well microtiter plate at a concentration of 8000 cells/well and cultured in the medium (7.0% fetal bovine serum, 7.0% horse serum, 1% antibiotic and antifungal, and 2.0% glutamine in DMEM) for one day at 37° C. under 5% carbon dioxide atmosphere. The medium was replaced with 4 μM Fluo-3-AM solution (20 mM HEPES, 137 mM NaCl, 5.37 mM KCl, 0.9 mM MgCl2, 1.26 mM CaCl2, 5.6 mM D-glucose, 2.5 mM probenecid, 0.5% BSA, and 0.04% Pluronic F-127, pH 7.5) and incubated at 37° C. under 5% dioxide carbon atmosphere for one hour. The plate was washed with washing buffer (20 mM HEPES, 137 mM NaCl, 5.27 mM KCl, 0.9 mM MgCl2, 1.26 mM CaCl2, 5.6 mM D-glucose, 2.5 mM probenecid, pH 7.5), and each well was added with 40 μL of this buffer. The plate was placed in High-Throughput Screening System FDSS 3000 (Hamamatsu Photonics K.K.). Measurement of fluorescence intensity by FDSS 3000 was started, and 40 μL of DMSO solutions containing 1% HSA (final concentrations) different concentrations of the test compound as prepared by dilution with dilution buffer (20 mM HEPES, 137 mM NaCl, 5.27 mM KCl, 0.9 mM MgCl2, 1.26 mM CaCl2, 5.6 mM D-glucose, 2.5 mM probenecid, 0.1% Pluronic F-127, pH 7.5) were dispensed to each well through the built-in automatic dispenser. Five minutes after, 50 nM ATP solution (50 μL) prepared by dilution with the dilution buffer was dispensed through the built-in automatic dispenser, and the measurement of fluorescence intensity was continued for 4 min. For each well, the specific maximum fluorescence intensity was calculated as the ratio of the maximum fluorescence intensity after addition of the ATP solution to the fluorescence intensity at the starting of the measurement. […] FDSS software (Hamamatsu Photonics K.K.) was used for calculation of the specific maximum fluorescence intensity. IC50 was calculated using Microsoft Excel (Microsoft Corporation) and XLfit (idbs Ltd.)

For Cc1ccc(Cn2c(=O)n(C[C@H](C)C(=O)O)c(=O)[nH]/c2=N\c2ccc(Oc3ccc(F)cn3)cc2)cc1 [Compound I-040], the clearance ([1]; intravenous administration 0.5 mg/kg) was 28.6 mL/min/kg, the AUC ([1]; intravenous administration 0.5 mg/kg, read-out: AUC (iv)) was 291 ng·h/mL and the AUC ([1]; oral administration 1 mg/kg, read-out: AUC (po)) was 410 ng·h/mL. It also gave an IC50 (human P2X3 receptor [2]) of 6 nM, a solubility at 18 h [3] greater than 50 µM and a fraction unbound at 24 h, 2 μg/mL [4] of 0.035. For the same compound, the IC50 (human P2X3 receptor [5]) was 18 nM.
